Article PMC10223062, “Discovery of Novel Thiophene/Hydrazones: In Vitro and In Silico Studies against Pancreatic Cancer” (Pharmaceutics, 2023)

Experiments:
[1] = system: HaCaT cell line; assay: Cell viability (cytotoxicity) in healthy cells, MTT assay; assay type: cell-based, human; conditions: for IC50: Homo sapiens, HaCaT, MTT, 72 h, healthy keratinocytes, read-out: IC50 in 2D cultured HaCaT cell line; for Selectivity, cancer vs healthy cell line: MIA PaCa-2 vs healthy cell line (HaCaT)
Experimental: HaCaT human healthy keratinocyte cells (CRL-2404™) (ATCC, Manassas, VA, USA) were cultured in DMEM (10% FBS, v/v) (Gibco, Billings, MT, USA), respectively and supplemented with 1% antibiotics (10.000 μg/mL streptomycin and 10.000 units/mL penicillin) (Gibco, Billings, MT, USA) at 37 °C in a humidified atmosphere of 5% CO2. For the preliminary assessment of the cytotoxicity of selected potent compounds in healthy cells, HaCaT cells were seeded 2 × 10^5 cells/mL in 96-well plate and incubated for 24 h. The following day the 7a, 7d, and 7f compounds were applied similarly as in the MIA PaCa-2 cytotoxicity protocol between concentrations 0.62–100 µM for 72 h and then MTT was applied.

[2] = system: MIA PaCa-2 tumor spheroids; assay: 3D spheroid formation/growth assay; assay type: cell-based, human; parameters: Spheroid Diameter Day 0 / Spheroid Diameter Day 9: unit not given here; conditions: for Spheroid Diameter Day 0: Day 0 (baseline); for Reduction of spheroid diameter: 9 days
Experimental: For the preliminary assessment of anticancer activity in a 2D cell culture system, an MIA PaCa-2 human pancreas epithelial carcinoma (CRL-1420™) cell line (ATCC, Manassas, VA, USA) was cultured in Dulbecco’s Modified Eagle Medium with 10% fetal bovine serum (FBS, v/v) (Gibco, Billings, MT, USA) and supplemented with 1% antibiotics (10,000 μg/mL streptomycin and 10,000 U/mL penicillin) (Gibco, Billings, MT, USA) at 37 °C in a humidified 5% CO2 atmosphere. For the in vitro modeling of the tumor microenvironment, compounds were also tested in a 3D spheroid test system. For this purpose, the MIA PaCa-2 human pancreas epithelial carcinoma (CRL-1420™) cell line and human dermal fibroblast cell line HDF (PCS-201-012) cells were used.
For 3D spheroid formation, the MIA PaCa-2 cells (PC cell line) and HDF cells were used according to the 3D Bioprinting method. To better simulate the tumor microenvironment, PC cells were mixed (1:1) with human fibroblasts. Briefly, the MIA PaCa-2 cells and human fibroblasts at 70–80% confluency were added to a 6-well plate and incubated with biocompatible NanoShuttle TM-PL (Bioprinting Kit, Greiner Bio-One, Germany) overnight at 37 °C in a humidified 5% CO2 atmosphere. After the nanoparticles were taken up by the cells, they were resuspended and seeded into an ultra-low attachment 96-well plate at a volume of 100 μL (2000 PC cells and 2000 human fibroblasts per well) volume. The plate was placed on a magnetic drive and incubated at 37 °C in a humidified 5% CO2 atmosphere until spheroids were formed. After two days of incubation, the spheroids were photographed using light microscopy (Carl Zeiss Primo Vert, Germany). Fresh medium containing 0.1, 1, 10, and 100 µM of tested compound was added to the wells. Photos were taken every 72 h, and the medium was replaced every 72 h. The effect of the tested compounds in 3D PC cell cultures was examined by measuring the size change of spheroids using ImageJ software (ImageJ 2.0 software, USA).

[3] = target: T1, COX-1 (Ovis aries, UniProt P05979); assay: Fluorometric COX-1 inhibitor screening kit
T1 sequence (P05979 25-600): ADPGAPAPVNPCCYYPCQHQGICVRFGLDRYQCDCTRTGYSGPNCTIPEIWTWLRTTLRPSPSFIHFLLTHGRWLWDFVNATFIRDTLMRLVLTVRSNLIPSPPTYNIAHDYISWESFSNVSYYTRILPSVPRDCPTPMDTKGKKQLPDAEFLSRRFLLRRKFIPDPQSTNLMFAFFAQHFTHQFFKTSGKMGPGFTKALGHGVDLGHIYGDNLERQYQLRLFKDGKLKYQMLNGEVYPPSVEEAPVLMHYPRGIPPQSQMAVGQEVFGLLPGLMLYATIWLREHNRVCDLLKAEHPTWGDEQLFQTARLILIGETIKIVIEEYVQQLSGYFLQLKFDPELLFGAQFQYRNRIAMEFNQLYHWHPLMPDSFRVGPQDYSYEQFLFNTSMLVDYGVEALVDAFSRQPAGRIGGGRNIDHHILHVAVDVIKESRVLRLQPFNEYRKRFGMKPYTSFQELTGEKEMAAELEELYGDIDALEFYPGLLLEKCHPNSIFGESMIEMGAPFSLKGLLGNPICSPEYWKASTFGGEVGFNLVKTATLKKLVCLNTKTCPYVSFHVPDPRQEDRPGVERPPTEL
Experimental: COX-1 and COX-2 inhibitory activities were tested using fluorometric COX-1 and COX-2 inhibitor screening kits (Abcam, United Kingdom), and the 5-LOX inhibitory activity was tested using a fluorometric 5-LOX inhibitor screening kit (MyBioSource, USA). These assays are based on the fluorometric detection of Prostaglandin G2 (a product generated by the COX enzyme) or on the fluorometric detection of the intermediate generated by the 5-LOX enzyme.
For the determination of COX-1 and COX-2 inhibitory activity, the tested compounds were dissolved in dimethyl sulfoxide (DMSO, 5 mM stock solution) and then diluted with the same solvent to obtain the test solutions. The test solutions were further diluted 5× with COX Assay Buffer (2 µL of test solution: 8 µL COX Assay Buffer). […] Solvent Control (SC) was prepared by adding 2 µL DMSO and 8 µL COX Assay Buffer, while Sample (S) and Enzyme Control (EC) were prepared by adding 10 µL of diluted test solution and COX Assay Buffer, respectively, into assigned wells.
EC, SC, IC, and all test solutions were analyzed in triplicate.

Structure (SMILES)	IC50 [1] [µM]	Selectivity, cancer vs healthy cell line [1]	Spheroid Diameter Day 0 ([2]; 0.1 µM group)	Spheroid Diameter Day 9 ([2]; 0.1 µM)	Spheroid Diameter Day 0 ([2]; 1 µM group)	Spheroid Diameter Day 9 ([2]; 1 µM)	Spheroid Diameter Day 0 ([2]; 10 µM group)	Spheroid Diameter Day 9 ([2]; 10 µM)	Reduction in spheroid size ([2]; 10 µM, after 9 days of treatment) [%]	Spheroid Diameter Day 0 ([2]; 100 µM group)	Reduction of spheroid diameter ([2]; 100 µM) [%]	Spheroid Diameter Day 9 ([2]; 100 µM)	IC50 [3] [µM]	Spheroid state at the end of the 9 days ([2]; 10–100 µM)	Spheroid state at the end of the 9 days ([2]; 100 µM)
O=C(N/N=C/c1ccccc1O)c1cc(-c2ccccc2)c(-c2ccccc2)s1 [7a, N’-[(E)-(2-hydroxyphenyl)methylidene]-4,5-diphenylthiophene-2-carbohydrazide]	0.88 ± 0.06	cytotoxic effects on healthy cell line too	1156.5 ± 14.2	5050.5 ± 36.9	1186.5 ± 91.9	1755.0 ± 58.9	1176.0 ± 31.1	636.0 ± 12.7	46	1183.0 ± 36.1	65	432.0 ± 17.4			
O=C(N/N=C/c1ccc(O)cc1)c1cc(-c2ccccc2)c(-c2ccccc2)s1 [7c, N’-[(E)-(4-hydroxyphenyl)methylidene]-4,5-diphenylthiophene-2-carbohydrazide]			1118.0 ± 31.1	5415.0 ± 12.7	1168.0 ± 52.7	6174.0 ± 106.1	989.5 ± 54.1	3729.5 ± 12.8		940.5 ± 33.9		2207.0 ± 47.1	> 100		
COc1ccccc1/C=N/NC(=O)c1cc(-c2ccccc2)c(-c2ccccc2)s1 [7d, N’-[(E)-(2-methoxyphenyl)methylidene]-4,5-diphenylthiophene-2-carbohydrazide]	> 100	showed selectivity	1127.5 ± 36.1	4911.0 ± 117.4	1211.0 ± 17.9	6312.5 ± 24.8	1297.5 ± 55.1	1708.0 ± 87.1		974.0 ± 32.2	55	445.7 ± 64.1			
COc1cc(/C=N/NC(=O)c2cc(-c3ccccc3)c(-c3ccccc3)s2)ccc1O [7e, N’-[(E)-(3-methoxy-4-hydroxyphenyl)methylidene]-4,5-diphenylthiophene-2-carbohydrazide]			1181.5 ± 33.2	5607.5 ± 44.55	1153.0 ± 73.5	6396.0 ± 16.1							> 100	disintegrated	
COc1ccc(/C=N/NC(=O)c2cc(-c3ccccc3)c(-c3ccccc3)s2)cc1O [7f, N’-[(E)-(3-hydroxy-4-methoxyphenyl)methylidene]-4,5-diphenylthiophene-2-carbohydrazide]	0.67 ± 0.13	cytotoxic effects on healthy cell line too	1110.0 ± 113.1	5823.0 ± 39.8	1108.0 ± 17.6	4336.0 ± 48.1	1215.0 ± 12.7	2806.0 ± 31.5					> 100		disintegrated
